What all share (assay type): cell-based
The target in one experiment is T1, hGIPR (Homo sapiens, UniProt P48546).
T1 construct: expressed in transfected cells; host or cells: CHO cells carrying a CRE-luciferase reporter gene
T1 sequence (P48546 22-466): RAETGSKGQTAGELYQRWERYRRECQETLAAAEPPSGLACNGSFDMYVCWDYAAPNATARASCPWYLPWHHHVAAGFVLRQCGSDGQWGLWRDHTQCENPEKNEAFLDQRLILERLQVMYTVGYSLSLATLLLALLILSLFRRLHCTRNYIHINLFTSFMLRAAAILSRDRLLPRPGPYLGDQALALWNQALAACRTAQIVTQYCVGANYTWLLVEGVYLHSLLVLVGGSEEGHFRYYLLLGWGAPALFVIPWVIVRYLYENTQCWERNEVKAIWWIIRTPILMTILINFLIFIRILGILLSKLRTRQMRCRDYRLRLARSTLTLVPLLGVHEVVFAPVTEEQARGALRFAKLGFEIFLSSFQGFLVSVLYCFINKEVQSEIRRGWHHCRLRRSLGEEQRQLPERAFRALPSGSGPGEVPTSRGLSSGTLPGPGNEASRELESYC
The experiment is described as follows: hGIPR CreLuc reporter gene assay in 0.5% and 100% plasma. Particulars: CreLuc reporter gene assay. In outline:
(§1)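 Agonist EC50s came from 8-concentration curves over four decades, fitted by non-linear variable-slope regression of CRE-driven luciferase luminescence. Cells were exposed 4 h at 37 °C, in buffer with 0.5% human plasma or in 100% plasma; GIPR was expressed in CHO cells, GLP-1R and NPY2R in HEK cells.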

A further experiment deals with T2, hNPY2R (Homo sapiens, UniProt P49146).
T2 construct: expressed in transfected cells; host or cells: HEK-293 cells carrying a CRE-luciferase reporter gene
T2 sequence (P49146 1-381): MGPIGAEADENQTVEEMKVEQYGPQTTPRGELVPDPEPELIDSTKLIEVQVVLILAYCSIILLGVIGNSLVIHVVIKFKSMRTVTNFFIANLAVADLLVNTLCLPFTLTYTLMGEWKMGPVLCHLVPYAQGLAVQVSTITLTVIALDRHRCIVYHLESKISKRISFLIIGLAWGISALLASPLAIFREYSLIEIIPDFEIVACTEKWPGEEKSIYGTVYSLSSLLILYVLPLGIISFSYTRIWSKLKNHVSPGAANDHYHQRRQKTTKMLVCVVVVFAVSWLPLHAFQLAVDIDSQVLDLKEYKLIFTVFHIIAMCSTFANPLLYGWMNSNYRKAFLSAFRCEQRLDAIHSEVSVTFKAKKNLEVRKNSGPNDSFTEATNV
The experiment is described as follows: hNPY2R CreLuc reporter gene assay in 0.5% and 100% plasma. Particulars: CreLuc reporter gene assay. An outline of the steps: as §1

A further experiment has as its target T3, hGLP1R (Homo sapiens, UniProt P43220).
T3 construct: expressed in transfected cells; host or cells: HEK-293 cells carrying a CRE-luciferase reporter gene
In words: hGLP1R CreLuc reporter gene assay in 0.5% and 100% plasma. Particulars: CreLuc reporter gene assay, 0.5% human plasma; read-out: hGLP1R 0.5% hP. An outline of the steps: as §1

Where [1] appears, read: 0.5% human plasma, read-out: hGIPR 0.5% hP.
The mark [2] stands for this setting: 0.5% human plasma, read-out: hNPY2R 0.5% hP.
Setting [3] is: 100% human plasma, read-out: hGIPR 100% hP.
Where [4] appears, read: 100% human plasma, read-out: hNPY2R 100% hP.

pEC50: −log10 of the molar value. Where two headings read alike, the source gives them in different places. Starred links: 1 amine or outer side, 2 acyl side, 3 side chain; linkers in the order of their positions; H or OH if unused. Non-standard residues stand in square brackets, D forms with d. Groups on a side chain read outwards from the residue. *: point of attachment. C20 diacid = O=C(O)CCCCCCCCCCCCCCCCCCC(=O)*; C18 diacid = O=C(O)CCCCCCCCCCCCCCCCC(=O)*; γGlu = O=C(O)[C@H](CCC(=O)[*:2])N[*:1]; εLys = N[C@@H](CCCCN[*:1])C(=O)[*:2]; AEEA = NCCOCCOCC(=O)O; Aib = CC(C)(N)C(=O)O

T3 sequence (P43220 24-463): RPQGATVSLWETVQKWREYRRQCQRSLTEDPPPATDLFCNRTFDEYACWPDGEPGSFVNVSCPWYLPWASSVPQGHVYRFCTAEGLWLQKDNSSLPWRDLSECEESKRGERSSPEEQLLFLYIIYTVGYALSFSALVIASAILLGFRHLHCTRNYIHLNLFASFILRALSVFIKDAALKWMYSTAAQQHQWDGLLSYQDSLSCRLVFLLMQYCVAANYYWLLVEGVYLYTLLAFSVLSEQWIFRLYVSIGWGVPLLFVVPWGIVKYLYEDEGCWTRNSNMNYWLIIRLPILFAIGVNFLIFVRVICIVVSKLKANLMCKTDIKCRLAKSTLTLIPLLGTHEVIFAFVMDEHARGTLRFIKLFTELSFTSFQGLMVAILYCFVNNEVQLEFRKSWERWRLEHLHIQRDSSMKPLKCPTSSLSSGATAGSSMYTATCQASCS

With “H-Y[Aib]EGTFTSDYSI[Aib]LEGQAQ[Aib]AFVEWLIK([εLys-γGlu-γGlu-γGlu-γGlu-γGlu-γGlu-C20 diacid])GGPSSGASLRHYYNWLTRQRY-NH2 [Compound 99, Y-Aib-E-G-T-F-T-S-D-Y-S-I-Aib-L-E-G-Q-A-Q-Aib-A-F-V-E-W-L-I-K(1,3)-GGPSSGASLRHYYNWLTRQRY-NH2.C20DA-gGlu-gGlu-gGlu-gGlu-gGlu-gGlu-eLys(1,2)]”, the pEC50 on hGIPR (setting [1]) is 9.04; on hNPY2R (setting [2]), 7.77; at hGLP1R, 9.39.
Taken in the same sequence, the figures for “H-Y[Aib]EGTFTSDYSI[Aib]LEK(Ac)QAQ[Aib]AFVEWLIK([εLys-γGlu-γGlu-γGlu-γGlu-γGlu-γGlu-C20 diacid])GGPSSGASLRHYYNWLTRQRY-NH2 [Compound 192, Y-Aib-E-G-T-F-T-S-D-Y-S-I-Aib-L-E-KAc-Q-A-Q-Aib-A-F-V-E-W-L-I-K(1,3)-GGPSSGASLRHYYNWLTRQRY-NH2.C20DA-gGlu-gGlu-gGlu-gGlu-gGlu-glu-eLys(1,2)]” were 9.55, 7.69 and 9.89.
For the substance “H-Y[Aib]EGTFTSDYSI[Aib]LEKAAQ[Aib]AFVEWLIK([εLys-γGlu-γGlu-γGlu-γGlu-γGlu-γGlu-C20 diacid])GGPSSGASLRHYYNWLTRQRY-NH2 [Compound 136, Y-Aib-E-G-T-F-T-S-D-Y-S-I-Aib-L-E-K-A-A-Q-Aib-A-F-V-E-W-L-I-K(1,3)-GGPSSGASLRHYYNWLTRQRY-NH2.C20DA-gGlu-gGlu-gGlu-gGlu-gGlu-gGlu-eLys(1,2)]”, the pEC50 at hGIPR (setting [1]) was 9.51; at hGIPR (setting [3]), 8.69; at hNPY2R (setting [2]) it was 7.82; at hNPY2R (setting [4]), 7.19; at hGLP1R, 9.49.
As for “H-Y[Aib]EGTFTSDYSI[Aib]LEKEAQ[Aib]KFVEWLIK([εLys-γGlu-γGlu-γGlu-γGlu-γGlu-γGlu-C20 diacid])GGPSSGASLRHYYNWLTRQRY-NH2 [Compound 46, Y-Aib-E-G-T-F-T-S-D-Y-S-I-Aib-L-E-K-E-A-Q-Aib-K-F-V-E-W-L-I-K(1,3)-GGPSSGASLRHYYNWLTRQRY-NH2.C20DA-gGlu-gGlu-gGlu-gGlu-gGlu-gGlu-eLys(1,2)]”, the pEC50 is 9.70 on hGIPR (setting [1]); 8.92 at hGIPR (setting [3]); 7.99 at hNPY2R (setting [2]); 7.44 at hNPY2R (setting [4]); 9.68 on hGLP1R.
Take “H-Y[Aib]EGTFTSDYSI[Aib]LEKQAE[Aib]AFVEWLIK([γGlu-γGlu-γGlu-γGlu-C18 diacid])GGPSEGASLRHYYNWLTRQRY-NH2 [Compound 262, Y-Aib-E-G-T-F-T-S-D-Y-S-I-Aib-L-E-K-Q-A-E-Aib-A-F-V-E-W-L-I-K(1,3)-GGPSEGASLRHYYNWLTRQRY-NH2.C18DA-gGlu-gGlu-gGlu-gGlu(1,2)]”: the pEC50 at hGIPR (setting [1]) was 10.10; at hGIPR (setting [3]) it was 9.28; at hNPY2R (setting [2]), 7.88; at hGLP1R, 9.89.
In the case of “H-Y[Aib]EGTFTSDYSI[Aib]LEKQAE[Aib]AFVQWLIK([AEEA-AEEA-γGlu-γGlu-γGlu-γGlu-C18 diacid])GGPSEGASLRHYYNWLTRQRY-NH2 [Compound 156, Y-Aib-E-G-T-F-T-S-D-Y-S-I-Aib-L-E-K-Q-A-E-Aib-A-F-V-Q-W-L-I-K(1,3)-GGPSEGASLRHYYNWLTRQRY-NH2.C18DA-gGlu-gGlu-gGlu-gGlu-OEG-OEG(1,2)]”, the pEC50 on hGIPR (setting [1]) was 9.80; on hNPY2R (setting [2]), 7.87; at hNPY2R (setting [4]), 7.58; at hGLP1R, 9.74.

Values taken from patent publication US20240247080A1, “GLP1/GIP/NPY2 RECEPTOR TRIPLE AGONISTS” (Boehringer Ingelheim International GmbH, priority 2022, published 2024).
